The values below come from US20240209016A1, “FLUORESCENT NUCLEOSIDE PHOSPHATES” (STEALTH LABELS BIOTECH AB, priority 2021, published 2024).

In data set [1] the test system is Huh-7 cells. Description: Cellular uptake and localisation by confocal fluorescence microscopy. The class given is cell-based, human. Particulars: 2.5 μM. The text has this:
Confocal Laser Scanning Fluorescence Microscopy: Images were captured using a Nikon eclipse Ti microscope with a Nikon C2plus scanner, two parallel Gallium arsenide phosphide (GaAsP) detectors, and an Apo 60x Oil μS DIC N2 objective. To excite the fluorescent nucleoside triphosphates the 405 nm laser line was used, and the emission was collected between 407-607 nm. To optimize the signal while avoiding photobleaching of the compounds a laser power of 2% and a detector gain of 4% was applied. For live cell imaging, Huh-7 cells were seeded in a four-compartment dish (CELLview Dishes, Greiner Bio-One) with glass bottom as described above. During imaging the dish was placed in a stage top incubation chamber (OKO lab) maintaining 37° C. and 5% CO2.
Time-lapse Imaging: To image the uptake of compounds 7 and 17 over time, the time-lapse setup of the NIS software was used. […]
Results: To explore the cellular uptake of compounds 7 and 17, they were added to Huh-7 cells in CCM and the uptake was monitored as function of time using a confocal fluorescence microscope (FIG. 4). Control cells, exposed to CCM alone, were imaged using the same microscopy settings and recorded as reference to probe for cellular autofluorescence levels. […]

The test system of data set [2] is Huh-7 cells. The data set can be described thus: Uptake kinetics monitored by flow cytometry. Particulars: 2.5 μM; for exposure time at which uptake reaches plateau / saturation: 5 min to 4 h exposure. The class given is cell-based, human. How it is done: For flow cytometry experiments, cells were seeded in a 48-well plate as described above. For kinetics experiments of the uptake, solutions of 2.5 μM of compounds 7 or 17 in CCM were added. Control samples were CCM, containing an equal volume of DPBS instead of FBA-TP. All treatments were done in triplicate. The experiment was setup such that all samples could be harvested at the same time at the end of the experiment. The FBA-TP solutions where therefore added at different time points. At the end of the experiment, the cells were washed twice with DPBS, and thereafter harvested by addition of 0.25% trypsin-EDTA. The trypsin was neutralized by adding DPBS with 2% added FBS and samples were transferred to a 96 U-bottom well plate for high throughput readout.
Measurements were generally performed on a BD LSRFortessa flow cytometer with an BD High Throughput Sampler (HTS). The system was connected to the software BD FACSDiva. Samples were excited using a 405 nm laser and emission passed through a bandpass filter centred at 450 nm (±20 nm). Uptake kinetics experiments were repeated twice. For monophosphate compounds, a Luminex CellStream flow cytometer with a high throughput sampler (HTS) connected to the CellStream Acquisition software was used. Excitation wavelength was 405 nm, with the emission passing through a 456/51 nm bandpass filter.

The subject of data set [3] is Huh-7 cells. Description: Uptake competition with ATP or adenosine. Particulars: 2.5 μM compound, 4 h, increasing ATP or adenosine. The class given is cell-based, human. How it is done:
Uptake of 2CNqATP and pATP was compared with natural adenosine triphosphate (ATP) or adenosine (both purchased from Sigma-Aldrich). The readout is based on the fluorescence of the compounds, detected in living cells by flow cytometry or in cell lysate using a microplate reader following co-administration with increasing concentrations of natural ATP or adenosine.
Cells were seeded in a 96-well plate. Treatment solutions with ATP or adenosine were prepared by stepwise dilution in CCM to reach the concentrations shown in FIG. 7. 2CNqATP or pATP were added at a concentration of 2.5 μM. The cells were incubated for 4 h at 37° C. and 5% CO2. Cell morphology was checked under a light microscope.
For flow cytometry, the treated cells were washed three times with DPBS and detached with 0.25% trypsin-EDTA, which was then neutralized with CCM. Samples were transferred to a 96 U-well plate for high throughput readout on a BD LSRFortessa flow cytometer. Samples were excited using a 405 nm laser and emission passed through a bandpass filter centred at 450 nm (±20 nm).
For lysate readout, cells were lysed in 5x passive lysis buffer (Promega) for 1 h rocking at room temperature (ca. 22° C.). Fluorescence was recorded on an Optima Blue Fluostar plate reader (BMG Labtech). 2CNqATP was excited at 355 nm (±20 nm) and emission was detected using bandpass filter centered at 460 nm (±12 nm). […]

The conditions of data set [4]: DPBS, room temperature; cited from earlier work.

Turning to “((2R,3S,4R,5R)-5-(2,3,5,6-tetraazacyclopenta[de]tetracen-2(6H)-yl)-3,4-dihydroxytetrahydrofuran-2-yl)methyl hydrogen triphosphate [pATP]”, in data set [1], the “intracellular fluorescence following 20 h exposure” value was “strong intracellular fluorescence”. In addition, in data set [2], the “lag phase of uptake” value is reported as 15 min and the “exposure time at which uptake reaches plateau / saturation” value is over 4 h. The “increase in cellular fluorescence over time (comparison)” value in data set [2] (5 min to 4 h) is on record as “significantly slower”. Further, in data set [3], the “uptake competition with ATP and adenosine” value was “also competes with ATP and adenosine, but the effect is considerably weaker”. Moreover, the ε260 in data set [4] was 22300^27 M^−1 cm^−1.

With “((2R,3S,4R,5R)-5-(8-cyano-2,3,5,6-tetraazaaceanthrylen-2(6H)-yl)-3,4-dihydroxytetrahydrofuran-2-yl)methyl hydrogen triphosphate [2CNqATP]”, the “intracellular fluorescence following 20 h exposure” value in data set [1] was “strong intracellular fluorescence”. In data set [2], the “exposure time at which fluorescence is significantly over the initial (t=0) level” value is on record as 5 min and the “exposure time at which uptake reaches plateau / saturation” value stood at 2 h. Also, in data set [3], the “uptake competition with ATP and adenosine” value is “competes with both ATP and adenosine with a stronger competition effect for ATP at low concentrations”. Also, the ε260 in data set [4] was 14600^26 M^−1 cm^−1.
